Source: US8399468B2, “Octahydro-pyrrolo[3,4-B]pyrrole derivatives” (Abbott Laboratories, priority 2006, dated 2013)

Conditions: compared with the 2-{4′-[(3aR,6aR)-5-methylhexahydropyrrolo[3,4-b]pyrrol-1(2H)-yl]-1,1′-biphenyl-4-yl}pyridazin-3(2H)-one compound

CN1C[C@H]2CCN(c3ccc(-c4ccc(-n5ncccc5=O)cc4)cc3)[C@H]2C1.O.O=C(O)C(O)C(O)C(=O)O [L-tartrate monohydrate Form A salt, 2-{4′-[(3aR,6aR)-5-Methylhexahydropyrrolo[3,4-b]pyrrol-1(2H)-yl]-1,1′-biphenyl-4-yl}pyridazin-3(2H)-one L-tartrate monohydrate Form A]
relative oxidative stability: better relative oxidative stability
